Test results from patent publication US20240391954A1, “MC4R AGONIST PEPTIDES” (The Regents of the University of Michigan, priority 2021, published 2024).
Positions of bridges follow the written chain, without caps; N, C: chain ends. Non-standard residues stand in square brackets, D forms with d. Residues, ends and D or L forms follow the SMILES beside them. NMeW = CN[C@@H](Cc1c[nH]c2ccccc12)C(=O)O; 1Nal = N[C@@H](Cc1cccc2ccccc12)C(=O)O; NMeH = CN[C@@H](Cc1c[nH]cn1)C(=O)O; 2Pal = N[C@@H](Cc1ccccn1)C(=O)O; 3Pal = N[C@@H](Cc1cccnc1)C(=O)O; Cit = NC(=O)NCCC[C@H](N)C(=O)O; NMeA = CN[C@@H](C)C(=O)O; Nle = CCCC[C@H](N)C(=O)O; Aib = CC(C)(N)C(=O)O

What was measured:
Type in all cases: cell-based
human MC3R = molecular target: T1, human MC3R (Homo sapiens, UniProt P41968); assay: split-luciferase cAMP sensor assay, agonist mode (measurement window 1), hMC3R; details: for Emax: % maximal activation, read-out: MC3R cAMP % max activation; for Emax / EC50: agonist mode; for MC4R selectivity vs MC3R: MC4R versus MC3R; for EC50: HEK-293 cells stably expressing hMC3R, read-out: MC3R cAMP EC50
T1 construct: expressed in transfected cells; host or cells: HEK-293 cells stably expressing the GScAMP22F split-luciferase cAMP sensor (parent reporter line from Promega); MC3R clone generated in-house, G418 selection
How it was run: (§1)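 Live stable cell lines carrying receptor plus GloSensor cAMP22f split-luciferase, loaded with 4% D-luciferin in serum-free medium (~1% serum estimated during assay). Luminescence recorded during in-line peptide addition; direct agonist effect read in window 1, with 20 μM forskolin as normalization reference. EC50 from four-parameter sigmoid fit.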

human MC1R = molecular target: T2, human MC1R (Homo sapiens, UniProt Q01726); assay: split-luciferase cAMP sensor assay, agonist mode, hMC1R; details: MC4R versus MC1R
T2 construct: expressed in transfected cells; host or cells: HEK-293 cells stably expressing hMC1R and the GScAMP22F cAMP sensor
Description: FIG. 4A-B. (A) Pharmacological properties of exemplary MC4R agonist peptides, including those with improved efficacy in the MC4R+/− mouse (CTX-1211, CTX-1227, and CTX-1228). Concentration-response agonist curves for peptides indicated at the human MC4R (red), human MC3R (blue), human MC5R (green), and human MC1R (black) were determined by a split-luciferase cAMP sensor dynamic assay in HEK-293 cells stably expressing the hMC1R, hMC3R, hMC4R, or hMC5R and the GScAMP22F cAMP sensor. Each data point represents the mean±SEM of two experiments with three replicates each per experiment. Data is normalized to the ECmax of α-MSH. (B) Same as above, for peptides representing reduced activity at the hMC1R. Inset tables indicate EC50 values for the ligand indicated for each receptor.
The assay for the determination of the cAMP response in live cells was described previously. (Yu et al., 2020, Science 368, 428-433; incorporated by reference in its entirety). Cells were seeded at a density of 20,000 cells per well using 384-well poly-D lysine-coated, clear bottom, and black-wall assay plates (Corning Inc. Corning, NJ). Cells were allowed to attach to the plates for 18 to 24 h after which growth media was removed and 20 μl of 4% D-luciferin (Promega) in CO2 independent, serum-free medium (Thermo Fisher Scientific) was added to each well. The luciferase substrate was allowed to permeate the cells for 120 min at 37° C. Intracellular cAMP levels were measured using an FDSS 7000EX Functional Drug Screening System (Hamamatsu Photonics, Hamamatsu, Japan) in the Center for Chemical Genomics at the Life Sciences Institute. This instrument allowed the in-line addition of test-peptides and receptor agonists while simultaneously acquiring the luminescence signal from live cells. Assay read steps were set as follows: baseline acquisition of 2 min, the addition of 10 μl of varying 3× concentrations of test-peptides or vehicle followed by 11 min measurement (measurement window 1), and 10 μl addition of 4× concentration of the endogenous melanocortin agonist α-MSH (Bachem, Bubendorf, Switzerland) followed by an additional 11 min response measurement (measurement window 2). The resulting final concentration of α-MSH was close to the respective receptor EC90 dose for each receptor. Intraplate concentration response curves for α-MSH and SHU-9119 (Phoenix Pharmaceuticals, Burlingame CA) were included as reference controls. A submaximal forskolin (20 μM) concentration was also included to serve as a normalization reference to account for cell number variations and differences in assay transducer efficiency between cell lines.
With this set up it was possible to evaluate the direct effect of the test-peptides on the MC3R and MC4R cell lines during measurement window 1, while the antagonist profile in the presence of EC90 α-MSH was determined on measurement window 2. For data analysis baseline luminescence (i.e. the maximum luminescence signal from the initial 0 to 2 min window) was subtracted from the maximum luminescence obtained during measurement window 1 (2 to 13 min) and measurement window 2 (13 to 24 min) to yield the test-peptide elicited responses. EC50 or IC50 potency values were determined by non-linear regression by fitting the data to a sigmoid four-parameter variable slope model using the GraphPad Prism version 8.4 software package (San Diego CA).

human MC4R = molecular target: T3, human MC4R (Homo sapiens, UniProt P32245); assay: split-luciferase cAMP sensor assay, agonist mode (measurement window 1), hMC4R; details: agonist mode; for Emax: % maximal activation, read-out: MC4R cAMP % max activation; for EC50: HEK-293 cells stably expressing hMC4R, read-out: MC4R cAMP EC50
T3 construct: host or cells: HEK-293 cells stably expressing the GScAMP22F split-luciferase cAMP sensor and hMC4R, G418 selection
How it was run: as §1

T1 sequence (P41968 whole entry): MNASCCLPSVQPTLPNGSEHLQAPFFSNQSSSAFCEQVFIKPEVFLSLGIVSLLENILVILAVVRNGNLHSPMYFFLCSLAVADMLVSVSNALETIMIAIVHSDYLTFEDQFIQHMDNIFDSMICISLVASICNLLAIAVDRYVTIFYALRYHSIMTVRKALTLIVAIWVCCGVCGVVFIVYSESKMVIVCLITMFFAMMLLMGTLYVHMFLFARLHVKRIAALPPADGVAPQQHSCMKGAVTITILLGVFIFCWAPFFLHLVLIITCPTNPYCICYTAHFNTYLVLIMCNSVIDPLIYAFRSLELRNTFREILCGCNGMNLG
T2 sequence (Q01726 whole entry): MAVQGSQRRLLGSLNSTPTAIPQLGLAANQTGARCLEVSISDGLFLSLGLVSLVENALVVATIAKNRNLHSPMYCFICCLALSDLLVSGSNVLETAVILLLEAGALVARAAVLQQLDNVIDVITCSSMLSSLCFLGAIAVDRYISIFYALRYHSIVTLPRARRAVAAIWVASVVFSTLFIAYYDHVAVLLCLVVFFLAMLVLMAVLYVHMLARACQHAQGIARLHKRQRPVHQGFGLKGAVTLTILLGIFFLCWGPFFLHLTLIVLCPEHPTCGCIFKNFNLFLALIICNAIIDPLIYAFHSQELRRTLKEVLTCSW
T3 sequence (P32245 whole entry): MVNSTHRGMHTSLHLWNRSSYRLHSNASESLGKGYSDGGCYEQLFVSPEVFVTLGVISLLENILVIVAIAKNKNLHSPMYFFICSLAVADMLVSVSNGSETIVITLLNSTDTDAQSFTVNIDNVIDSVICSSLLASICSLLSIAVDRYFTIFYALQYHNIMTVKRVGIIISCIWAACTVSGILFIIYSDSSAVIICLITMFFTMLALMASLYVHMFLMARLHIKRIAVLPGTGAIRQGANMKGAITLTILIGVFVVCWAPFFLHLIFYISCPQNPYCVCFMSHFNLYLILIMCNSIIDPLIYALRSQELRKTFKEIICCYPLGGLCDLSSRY

| SMILES | Emax (human MC3R) | MC4R selectivity vs MC3R (human MC3R) | MC4R selectivity vs MC1R (human MC1R) | Emax (human MC4R) | EC50 (human MC4R) | EC50 (human MC3R) |
| --- | --- | --- | --- | --- | --- | --- |
| CC(=O)N[C@H]1CSSC[C@@H](C(N)=O)NC(=O)[C@H](Cc2c[nH]c3ccccc23)NC(=O)[C@H](CCCNC(=N)N)NC(=O)[C@@H](Cc2ccccc2)NC(=O)[C@H](CCCNC(N)=O)NC(=O)CNC1=O [CTX-1630, cyclo(Cys-Gly-Cit-D-Phe-Arg-Trp-Cys)] (Ac-CG[Cit][dF]RWC-NH2; disulfide 1-7 (inferred)) | 35% | 28 | 1816 | 102% |  |  |
| CC(=O)N[C@@H](CCCNC(=N)N)C(=O)N[C@H]1CSSC[C@@H](C(N)=O)NC(=O)[C@H](Cc2c[nH]c3ccccc23)NC(=O)[C@H](CCCNC(=N)N)NC(=O)[C@@H](Cc2ccccc2)NC(=O)[C@H](Cc2c[nH]cn2)NC(=O)C(C)(C)NC1=O [CTX-1291, Arg-cyclo(Cys-Aib-His-D-Phe-Arg-Trp-Cys)] | 91% | 7.99 | 1.31 | 98% |  |  |
| C[C@H]1NC(=O)CSC[C@@H](C(N)=O)NC(=O)[C@H](Cc2c[nH]c3ccccc23)NC(=O)[C@H](CCCNC(=N)N)NC(=O)[C@@H](Cc2ccccc2)NC(=O)[C@H](CCCNC(=N)N)NC1=O [CTX-1642, Thioether-cyclo(D-Ala-Arg-D-Phe-Arg-Trp-Cys)] ({CH2CO}-[dA]R[dF]RWC-NH2; thioether N-6) | 90% | 29 | 13 | 107% | 2.9 nM |  |
| CCCC[C@H](NC(=O)[C@H](CCCNC(=N)N)NC(C)=O)C(=O)N[C@H]1CSSC[C@@H](C(N)=O)NC(=O)[C@H](Cc2c[nH]c3ccccc23)NC(=O)[C@H](CCCNC(=N)N)NC(=O)[C@@H](Cc2ccccc2)NC(=O)[C@H](Cc2cccnc2)NC1=O [CTX-1620, Arg-Nle-cyclo(Cys-Pal(3′)-D-Phe-Arg-Trp-Cys)] (Ac-R[Nle]C[3Pal][dF]RWC-NH2; disulfide 3-8 (inferred)) | 39% | 12 | 47 | 91% |  |  |
| CC(=O)N[C@@H](CCCNC(=N)N)C(=O)N[C@H]1CSSC[C@@H](C(N)=O)NC(=O)[C@@H](Cc2c[nH]c3ccccc23)NC(=O)[C@H](CCCNC(=N)N)NC(=O)[C@@H](Cc2ccccc2)NC(=O)[C@H](CCCNC(=N)N)NC(=O)[C@H](C)N(C)C1=O [CTX-1269, Arg-cyclo(Cys-NMe-Ala-Arg-D-Phe-Arg-D-Trp-Cys)] (Ac-RC[NMeA]R[dF]R[dW]C-NH2; disulfide 2-8 (inferred)) | 39% | 9.31 | 2.56 | 92% | 13 nM |  |
| CC(=O)N[C@H]1CSSC[C@@H](C(N)=O)NC(=O)[C@H](Cc2ccccc2)NC(=O)[C@H](CCCNC(=N)N)NC(=O)[C@@H](Cc2ccccc2)NC(=O)[C@H](CCCNC(=N)N)NC(=O)C(C)(C)NC1=O [CTX-1635, cyclo(Cys-Aib-Arg-D-Phe-Arg-Phe-Cys)] (Ac-C[Aib]R[dF]RFC-NH2; disulfide 1-7 (inferred)) | 70% | 5.7 | 1.19 | 112% |  |  |
| C[C@H]1NC(=O)CSC[C@@H](C(N)=O)NC(=O)[C@H](Cc2c[nH]c3ccccc23)N(C)C(=O)[C@H](CCCNC(=N)N)NC(=O)[C@@H](Cc2ccccc2)NC(=O)[C@H](Cc2c[nH]cn2)N(C)C1=O [CTX-1203, Thioether-cyclo(D-Ala-Nme-His-D-Phe-Arg-Nme-Trp-Cys)] ({CH2CO}-[dA][NMeH][dF]R[NMeW]C-NH2; thioether N-6) | 107% | 161 | 2.32 | 109% | 16 nM |  |
| CC(=O)N[C@@H](CCCNC(=N)N)C(=O)N[C@H]1CSSC[C@@H](C(N)=O)NC(=O)[C@H](Cc2ccccc2)NC(=O)[C@H](CCCNC(=N)N)NC(=O)[C@@H](Cc2ccccc2)NC(=O)[C@H](Cc2ccccn2)NC(=O)C(C)(C)NC1=O [CTX-1604, Arg-cyclo(Cys-Aib-Pal(2′)-D-Phe-Arg-Phe-Cys)] (Ac-RC[Aib][2Pal][dF]RFC-NH2; disulfide 2-8 (inferred)) | 12% | 0.11 | 3.66 | 96% |  |  |
| CC(=O)N[C@H]1CSSC[C@@H](C(N)=O)NC(=O)[C@H](Cc2c[nH]c3ccccc23)NC(=O)[C@H](CCCNC(=N)N)NC(=O)[C@@H](Cc2ccccc2)NC(=O)[C@H](CCCNC(=N)N)NC(=O)[C@@H](C)NC1=O [CTX-1627, cyclo(Cys-D-Ala-Arg-D-Phe-Arg-Trp-Cys)] (Ac-C[dA]R[dF]RWC-NH2; disulfide 1-7 (inferred)) | 98% | 2.47 | 9.33 | 104% | 1.4 nM | 3.7 nM |
| CC(=O)N[C@H]1CSSC[C@@H](C(N)=O)NC(=O)[C@H](Cc2ccccc2)NC(=O)[C@H](CCCNC(=N)N)NC(=O)[C@@H](Cc2ccccc2)NC(=O)[C@H](CCCNC(=N)N)NC(=O)CNC1=O [CTX-1638, cyclo(Cys-Gly-Arg-D-Phe-Arg-Phe-Cys)] (Ac-CGR[dF]RFC-NH2; disulfide 1-7) | 75% | 1.66 | 1.04 | 110% |  |  |
| CC(=O)N[C@H]1CSSC[C@@H](C(N)=O)NC(=O)[C@H](Cc2c[nH]c3ccccc23)NC(=O)[C@H](CCCNC(=N)N)NC(=O)[C@@H](Cc2ccccc2)NC(=O)[C@H](CCCNC(=N)N)NC(=O)CNC1=O [CTX-1629, cyclo(Cys-Gly-Arg-D-Phe-Arg-Trp-Cys)] (Ac-CGR[dF]RWC-NH2; disulfide 1-7) | 83% | 19 | 15 | 102% |  | 13 nM |
| CC(=O)N[C@@H](CCCNC(=N)N)C(=O)N[C@H]1CSSC[C@@H](C(N)=O)NC(=O)[C@@H](Cc2c[nH]c3ccccc23)NC(=O)[C@H](CCCNC(=N)N)NC(=O)[C@@H](Cc2ccccc2)NC(=O)[C@H](CCCNC(=N)N)NC(=O)[C@@H](C)NC1=O [CTX-1263, Arg-cyclo(Cys-D-Ala-Arg-D-Phe-Arg-D-Trp-Cys)] (Ac-RC[dA]R[dF]R[dW]C-NH2; disulfide 2-8) | 69% | 1.62 | 1.73 | 93% |  | 11 nM |
| CCCC[C@H](NC(=O)[C@H](CCCNC(=N)N)NC(C)=O)C(=O)N[C@H]1CSSC[C@@H](C(N)=O)NC(=O)[C@H](Cc2c[nH]c3ccccc23)NC(=O)[C@H](CCCNC(=N)N)NC(=O)[C@H](Cc2cccc3ccccc23)NC(=O)[C@H](Cc2c[nH]cn2)NC1=O [CTX-1610, Arg-Nle-cyclo(Cys-His-Nal(1′)-Arg-Trp-Cys)] (Ac-R[Nle]CH[1Nal]RWC-NH2; disulfide 3-8) | 67% | 0.66 | 0.03 | 90% |  |  |
